Measured values as given in patent publication US11382850B2, “Compositions and methods for inhibiting growth of caries-, gingivitis- and halitosis-causing bacteria” (DoseBiome Inc., priority 2019, dated 2022).

Columns and labels:
Format in all cases: cell-based
[1] = tested on: Streptococcus mutans UA159; test: Growth inhibition assay, S. mutans (colony counts normalized to pH-matched BHI); settings: 1% (w/v) or 10% (w/v) sugar alcohol alone, pH 6.5, 7.5 or 8.5
[2] = tested on: Solobacterium moorei DSM 22971; test: Growth inhibition assay, S. moorei (colony counts normalized to pH-matched Schaedler's broth)
Protocol: Solobacterium moorei DSM 22971 and Porphyromonas gingivalis ATCC 33277 were grown in Schaedler's broth (Himedia) or Brucella blood agar with hemin and vitamin K (Hardy Diagnostics) under anaerobic conditions at 37° C. Anaerobic conditions were maintained using the Anaerogen atmosphere generation system (Oxoid). Streptococcus mutans UA159 were grown in Brain Heart Infusion (BHI; Hardy Diagnostics) under 5% CO2 at 37° C. Various concentrations of xylitol (Acros Organics), erythritol (Acros Organics) and/or polyphenon 60 (Sigma) were dissolved in Schaedler's broth or BHI broth. […] The mixtures were pH adjusted using either hydrochloric acid or sodium hydroxide to a final pH of 6.5±0.1, 7.5±0.1 or 8.5±0.1. All test products were filter-sterilized after pH adjustment. […] After 48 h of incubation, various dilutions of the cells were spotted into Brucella blood agar with hem in and vitamin K, and incubated for 48 h for S. moorei, and for 72 h for P. gingivalis. Cell counts were normalized against growth in Schaedler's broth adjusted to their respective testing pH. […] The percent inhibition was measured by normalizing the results against S. moorei grown in media with the corresponding pH adjustment. […] The percent survival was measured by normalizing the results against S. moorei grown in media with the corresponding pH adjustment. […] The percent inhibition was measured by normalizing the results against S. moorei grown in media with the corresponding pH adjustment. An upper limit of 0.1 mg/mL polyphenon 60 was used in order to be able to assess the pH effects.

[3] = tested on: Porphyromonas gingivalis ATCC 33277; test: Growth inhibition assay, P. gingivalis (colony counts normalized to pH-matched Schaedler's broth)
Protocol: Solobacterium moorei DSM 22971 and Porphyromonas gingivalis ATCC 33277 were grown in Schaedler's broth (Himedia) or Brucella blood agar with hemin and vitamin K (Hardy Diagnostics) under anaerobic conditions at 37° C. Anaerobic conditions were maintained using the Anaerogen atmosphere generation system (Oxoid). Streptococcus mutans UA159 were grown in Brain Heart Infusion (BHI; Hardy Diagnostics) under 5% CO2 at 37° C. Various concentrations of xylitol (Acros Organics), erythritol (Acros Organics) and/or polyphenon 60 (Sigma) were dissolved in Schaedler's broth or BHI broth. […] The mixtures were pH adjusted using either hydrochloric acid or sodium hydroxide to a final pH of 6.5±0.1, 7.5±0.1 or 8.5±0.1. All test products were filter-sterilized after pH adjustment. […] After 48 h of incubation, various dilutions of the cells were spotted into Brucella blood agar with hem in and vitamin K, and incubated for 48 h for S. moorei, and for 72 h for P. gingivalis. Cell counts were normalized against growth in Schaedler's broth adjusted to their respective testing pH. […] The percent inhibition was measured by normalizing the results against P. gingivalis grown in media with the corresponding pH adjustment. […] The percent inhibition was measured by normalizing the results against P. gingivalis grown in media with the corresponding pH adjustment.

[4] = 10% sugar alcohol alone, pH 6.5
[5] = 10% sugar alcohol alone, pH 7.5
[6] = 10% sugar alcohol alone, pH 8.5

| Compound | inhibitory activity on growth of S. mutans [1] | S. moorei survival [2, 4] [%] | S. moorei survival [2, 5] [%] | S. moorei survival [2, 6] [%] | inhibition of S. moorei growth ([2]; on its own at varying concentrations, any pH) | Survival of P. gingivalis ([3]; 1% sugar alcohol alone, pH 6.5) [%] | Survival of P. gingivalis ([3]; 1% sugar alcohol alone, pH 7.5) [%] | Survival of P. gingivalis [3, 4] [%] | Survival of P. gingivalis [3, 5] [%] | Survival of P. gingivalis [3, 6] [%] | S. moorei survival ([2]; 1% sugar alcohol alone, pH 6.5) [%] | S. moorei survival ([2]; 1% sugar alcohol alone, pH 7.5) [%] | S. moorei survival ([2]; 1% sugar alcohol alone, pH 8.5) [%] | Survival of P. gingivalis ([3]; 1% sugar alcohol alone, pH 8.5) [%] |
| --- | --- | --- | --- | --- | --- | --- | --- | --- | --- | --- | --- | --- | --- | --- |
| OC[C@@H](O)[C@@H](O)CO [erythritol] | inhibit growth | 140.4 | 156.9 | 162.0 | did not inhibit | 92.1 | 75.4 | 41.1 | 19.9 | 13.6 | – | – | – | – |
| OC[C@@H](O)[C@H](O)[C@@H](O)CO [xylitol] | had inhibitory activity | 52.6 | 53.6 | 26.8 | – | 69.8 | 63.2 | 14.3 | 8.9 | 7.4 | 52.0 | 53.3 | 17.3 | 60.0 |
